Measurements reported in patent US7842726B2, “Carnitine derivative, salt thereof, external skin preparation and cosmetic material” (Showa Denko K.K., priority 2005, dated 2010).
Where a name gives a salt, the structure may show the parent alone.

Legend:
[1] = Percutaneous absorption through three-dimensional human skin model, two-chamber test; format: in vitro ADME; settings: 0.3% by mass solution, pH 7, 35° C., after 24 hours; compared with L-carnitine palmitate; FIG. 1
Method: The test substances were each dissolved in Dulbecco's PBS (−) containing 5% by mass of 1,2-hexanediol, followed by adding 1N NaOH to adjust the pH to 7. Consequently, 0.3% by mass solutions of the test substances were prepared. Two chambers were separated through a three-dimensional model of human skin tissue (TESTSKIN™ LSD-d, available from TOYOBO CO., LTD.). 3 ml of each test substance solution was placed into a chamber on the epidermis side, and 3 ml of Dulbecco's PBS (−) was placed into a chamber on the dermis side. They were stirred with magnetic stirrers at 35° C. for 24 hours.
After the lapse of 24 hours, 1 ml of the buffer solution in the dermis-side chamber was collected, and 0.5 ml of the solution collected was analyzed to determine free carnitine. The remaining portion of the solution collected was adjusted to pH 11 with 1N NaOH, was encapsulated in a 1.5 ml screw vial, and was allowed to stand at 80° C. for 6 hours, followed by cooling. The pH of the solution was adjusted to 7 with 1N HCl, whereby all acylcarnitine derivatives were decomposed to free carnitine. These solutions were each combined with 0.02 ml of 1N hydrochloric acid, 0.1 ml of 1.6% by mass 1-aminoanthracene-in acetone solution and 0.1 ml of 16% by mass aqueous EDC (1-ethyl-3-(3-dimethylaminopropyl)carbodiimide hydrochloride) solution, followed by sufficient stirring. The solutions were allowed to stand still at room temperature for 20 minutes and were washed with 3 ml of diethylether. The aqueous phases were filtered and were analyzed by reversed-phase high performance liquid chromatography (RPHPLC) (column: Phenomenex Synergi-RP, eluting solution: 45% acetonitrile, flow rate: 1.0 ml/min) to determine peak intensities assigned to 1-aminoanthracene-modified carnitine (excitation wavelength: 248 nm, fluorescent wavelength: 418 nm). The concentrations of carnitine derivatives and free carnitine originating from the test substances in the solution in the dermis-side chamber were calculated and determined from the aforesaid peak intensities. […]

[2] = system: Human preadipocytes; test: Fat breakdown stimulation: triglyceride accumulation in adipocytes (oil red staining, colorimetry); format: cell-based; settings: for effect of stimulating fat metabolism: conclusion from Table 2, 50 μM, 5 days; for Triglyceride accumulation: relative to untreated adipocytes (100), 50 μM test substance, 5 days incubation
Method: Human preadipocytes (available from TOYOBO Co., LTD.) were seeded on a 96-well microplate and were incubated at 37° C. and 5% CO2 using human preadipocyte growth medium TAGM (available from TOYOBO Co., LTD.) while renewing the medium every two days. The growth medium was changed to human adipocyte differentiation medium TADM (available from TOYOBO Co., LTD.), and incubation was carried out for 5 days. Subsequently, the medium was changed to an evaluation medium as shown in Table 1 below without or with 50 μM of any of the test substances described below. The incubation was carried out for 5 days.
The adipocytes were washed with Dulbecco's PBS (−) three times and were formalin fixed. The adipocytes were stained with an oil red/water-isopropanol (1/1) solution, and were extracted with isopropanol. Triglyceride accumulated in the adipocytes was determined by a colorimetry method.

[3] = Stability of carnitine derivatives in aqueous solution at 80° C. (RPHPLC); format: physicochemical; settings: 0.3% by mass in PBS(-) with 5% 1,2-hexanediol, pH 7, 80° C.; changes with time; FIG. 2
Method: The test substances were each dissolved in Dulbecco's PBS (−) containing 5% by mass of 1,2-hexanediol, followed by adding 1N NaOH to adjust the pH to 7. Consequently, 0.3% by mass solutions of the test substances were prepared. The solutions were tightly encapsulated in glass vials and were temperature controlled at 80° C. in a water bath.
After the lapse of a predetermined time, the solutions were collected and were analyzed by RPHPLC (column: Shodex C8-5B, eluting solution: 70% acetonitrile, flow rate: 1.0 ml/min). The remaining carnitine derivatives originating from the test substances were determined from the UV absorption intensity at 210 nm.

Row | SMILES | L-carnitine concentration (carnitine derivatives and free carnitine) passed to the dermis-side chamber [1] | effect of stimulating fat metabolism [2] | Triglyceride accumulation [2] | residual ratio of carnitine derivatives in aqueous solution [3]
1 | CCCCCCC(CCCC)C(=O)OC(CC(=O)[O-])C[N+](C)(C)C [L-carnitine 2-butyloctanoate hydrochloride] | comparable or higher L-carnitine concentrations than that obtained with L-carnitine palmitate | good effects of stimulating fat metabolism | 90 | higher residual ratio and were exceptionally more stable in aqueous solutions than the acylcarnitines having a straight-chain acyl group
2 | CCCCCCCCC(CCCCCC)C(=O)OC(CC(=O)[O-])C[N+](C)(C)C [L-carnitine 2-hexyldecanoate hydrochloride] | comparable or higher L-carnitine concentrations than that obtained with L-carnitine palmitate | good effects of stimulating fat metabolism | 89 | higher residual ratio and were exceptionally more stable in aqueous solutions than the acylcarnitines having a straight-chain acyl group
3 | CCCCCCCCCCCCCCC(C)C(=O)OC(CC(=O)[O-])C[N+](C)(C)C [L-carnitine 2-methylpalmitate hydrochloride] | comparable or higher L-carnitine concentrations than that obtained with L-carnitine palmitate | good effects of stimulating fat metabolism | 89 | higher residual ratio and were exceptionally more stable in aqueous solutions than the acylcarnitines having a straight-chain acyl group
4 | C[N+](C)(C)C[C@H](O)CC(=O)[O-].Cl [L-carnitine hydrochloride, reference compound] | – | – | 98 | –
5 | CCCCCCCCCCCCCCCC(=O)O[C@H](CC(=O)[O-])C[N+](C)(C)C.Cl [L-carnitine palmitate hydrochloride, reference compound] | – | – | 87 | –
